In assay [1] the target is 3',5'-cyclic-AMP phosphodiesterase 4A (Homo sapiens, UniProt P27815). Briefly: Selectivity interaction (Enzyme panel (AstraZeneca, AlphaScreen, functional assay)) EUB0000621a PDE4A. (Bead proximity is the source of the signal in Alpha formats.)
The target of assay [2] is Casein kinase I isoform gamma-2 (Homo sapiens) (UniProt P78368). Conditions: at 10 µM.
For assay [3], the target named is Dual specificity testis-specific protein kinase 1 (Homo sapiens) (UniProt Q15569). Put plainly: Selectivity interaction (Ambit KINOMEscan and KiNATiv profiling in Jurkat cells) EUB0000090b TESK1. Type of assay: cell-based. Conditions: at 1 µM.
In assay [4] the target is Phosphatidylinositol 4-phosphate 3-kinase C2 domain-containing subunit beta (Homo sapiens) (UniProt O00750). Briefly: Selectivity interaction (Ambit KINOMEscan and KiNATiv profiling in Jurkat cells) EUB0000090b PIK3C2B. In kind it is cell-based. The following applies: at 1 µM.
Assay [5] addresses Casein kinase I isoform gamma-3 (Homo sapiens) (UniProt Q9Y6M4). Put plainly: Selectivity interaction (KinaseProfiler screening (Millipore)) EUB0000601a CSNK1G3. The following applies: at 3 µM.
Assay [6] has as its target T1, Serine/threonine-protein kinase RIO1 (Homo sapiens) (UniProt Q9BRS2).
T1 sequence (whole entry): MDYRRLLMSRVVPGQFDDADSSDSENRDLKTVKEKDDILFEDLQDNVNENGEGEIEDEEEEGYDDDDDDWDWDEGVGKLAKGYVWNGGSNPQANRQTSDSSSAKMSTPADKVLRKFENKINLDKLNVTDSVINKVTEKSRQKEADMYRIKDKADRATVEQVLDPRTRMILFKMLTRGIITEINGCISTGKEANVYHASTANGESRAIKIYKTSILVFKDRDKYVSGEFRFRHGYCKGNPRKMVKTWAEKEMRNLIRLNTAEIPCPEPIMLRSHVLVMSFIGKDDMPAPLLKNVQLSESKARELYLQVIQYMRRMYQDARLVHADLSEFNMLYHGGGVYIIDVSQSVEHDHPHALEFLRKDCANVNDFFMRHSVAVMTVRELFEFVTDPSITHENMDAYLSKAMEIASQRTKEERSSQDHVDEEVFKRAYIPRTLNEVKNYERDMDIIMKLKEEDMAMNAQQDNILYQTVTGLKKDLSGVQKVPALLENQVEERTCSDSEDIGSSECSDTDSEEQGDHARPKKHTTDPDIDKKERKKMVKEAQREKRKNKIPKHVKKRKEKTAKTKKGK
Briefly: Selectivity interaction (KinomeScan (DiscoverX)) EUB0001079a RIOK1. The following applies: at 1 µM.

Assay [7] has as its target T2, Mitogen-activated protein kinase kinase kinase kinase 3 (Homo sapiens) (UniProt Q8IVH8).
T2 sequence (whole entry): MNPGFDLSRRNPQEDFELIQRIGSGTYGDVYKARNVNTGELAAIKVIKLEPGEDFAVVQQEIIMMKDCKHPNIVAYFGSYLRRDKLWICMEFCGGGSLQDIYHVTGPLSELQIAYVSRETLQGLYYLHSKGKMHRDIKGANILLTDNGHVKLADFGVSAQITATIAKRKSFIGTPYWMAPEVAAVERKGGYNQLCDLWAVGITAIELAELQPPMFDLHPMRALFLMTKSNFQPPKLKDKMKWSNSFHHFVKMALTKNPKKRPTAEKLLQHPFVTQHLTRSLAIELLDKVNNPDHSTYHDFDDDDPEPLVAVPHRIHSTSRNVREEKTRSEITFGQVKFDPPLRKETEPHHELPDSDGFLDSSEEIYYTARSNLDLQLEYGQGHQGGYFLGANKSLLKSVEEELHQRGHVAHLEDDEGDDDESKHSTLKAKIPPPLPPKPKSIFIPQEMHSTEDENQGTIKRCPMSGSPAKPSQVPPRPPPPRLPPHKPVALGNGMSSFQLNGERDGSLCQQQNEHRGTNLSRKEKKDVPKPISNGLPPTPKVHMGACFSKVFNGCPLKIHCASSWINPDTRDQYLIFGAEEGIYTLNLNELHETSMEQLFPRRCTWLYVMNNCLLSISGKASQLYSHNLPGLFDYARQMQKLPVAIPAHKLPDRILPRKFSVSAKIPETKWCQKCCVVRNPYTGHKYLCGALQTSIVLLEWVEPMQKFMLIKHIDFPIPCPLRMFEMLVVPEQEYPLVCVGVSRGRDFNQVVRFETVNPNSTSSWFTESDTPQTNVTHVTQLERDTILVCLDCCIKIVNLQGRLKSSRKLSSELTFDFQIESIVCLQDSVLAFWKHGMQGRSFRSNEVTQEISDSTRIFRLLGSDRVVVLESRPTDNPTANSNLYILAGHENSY
Put plainly: Selectivity interaction (KinomeScan (DiscoverX)) EUB0000092b MAP4K3. The following applies: at 10 µM.

Assay [8] deals with Ribosomal protein S6 kinase alpha-2 (Homo sapiens) (UniProt Q15349). Put plainly: Selectivity interaction (KinomeScan (DiscoverX)) EUB0000695a RPS6KA2. The following applies: at 100 nM.
Assay [9] concerns the target Mitogen-activated protein kinase 6 (Homo sapiens) (UniProt Q16659). Briefly: Selectivity interaction (KinomeScan (DiscoverX)) EUB0000695a MAPK6. Conditions: at 100 nM.
Assay [10] has as its target Dual specificity protein kinase CLK3 (Homo sapiens, UniProt P49761). Briefly: Selectivity interaction (KinomeScan (DiscoverX)) EUB0000045b CLK3.
The target in assay [11] is Ribosomal protein S6 kinase alpha-5 (Homo sapiens) (UniProt O75582). Put plainly: Selectivity interaction (KinomeScan (DiscoverX)) EUB0000229b RPS6KA5. The following applies: at 10 µM.
In assay [12] the target is MAP/microtubule affinity-regulating kinase 3 (Homo sapiens) (UniProt P27448). Put plainly: Selectivity interaction (KinomeScan (DiscoverX)) EUB0000595a MARK3. The following applies: at 10 µM.
Assay [13] addresses Proto-oncogene tyrosine-protein kinase receptor Ret (Homo sapiens, UniProt P07949). Briefly: (§1) Selectivity interaction (KinomeScan (DiscoverX)) EUB0001619a RET. Conditions: at 1 µM.
In assay [14] the test system is Proto-oncogene tyrosine-protein kinase receptor Ret (Homo sapiens), P07949 [V804M]. The assay is described as §1. Conditions: at 1 µM.
The subject of assay [15] is Proto-oncogene tyrosine-protein kinase receptor Ret (Homo sapiens), P07949 [M918T]. The assay is described as §1. Conditions: at 1 µM.
Assay [16] concerns Proto-oncogene tyrosine-protein kinase receptor Ret (Homo sapiens), P07949 [V804L]. The assay is described as §1. The following applies: at 1 µM.

Sequence of Dual specificity protein kinase CLK3 (P49761 whole entry, looked up): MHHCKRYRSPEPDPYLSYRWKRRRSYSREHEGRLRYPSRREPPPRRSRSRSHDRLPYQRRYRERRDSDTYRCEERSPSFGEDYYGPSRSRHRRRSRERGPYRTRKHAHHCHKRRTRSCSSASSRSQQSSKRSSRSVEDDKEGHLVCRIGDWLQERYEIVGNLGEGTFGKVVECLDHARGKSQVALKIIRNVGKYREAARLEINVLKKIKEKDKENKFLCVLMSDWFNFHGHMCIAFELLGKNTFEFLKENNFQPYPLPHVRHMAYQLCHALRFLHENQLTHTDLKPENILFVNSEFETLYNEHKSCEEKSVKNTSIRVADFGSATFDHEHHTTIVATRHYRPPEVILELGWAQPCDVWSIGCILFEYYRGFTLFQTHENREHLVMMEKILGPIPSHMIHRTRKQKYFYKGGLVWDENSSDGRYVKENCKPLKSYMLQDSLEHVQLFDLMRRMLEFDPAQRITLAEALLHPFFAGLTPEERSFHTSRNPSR
Sequence of Proto-oncogene tyrosine-protein kinase receptor Ret (P07949 whole entry): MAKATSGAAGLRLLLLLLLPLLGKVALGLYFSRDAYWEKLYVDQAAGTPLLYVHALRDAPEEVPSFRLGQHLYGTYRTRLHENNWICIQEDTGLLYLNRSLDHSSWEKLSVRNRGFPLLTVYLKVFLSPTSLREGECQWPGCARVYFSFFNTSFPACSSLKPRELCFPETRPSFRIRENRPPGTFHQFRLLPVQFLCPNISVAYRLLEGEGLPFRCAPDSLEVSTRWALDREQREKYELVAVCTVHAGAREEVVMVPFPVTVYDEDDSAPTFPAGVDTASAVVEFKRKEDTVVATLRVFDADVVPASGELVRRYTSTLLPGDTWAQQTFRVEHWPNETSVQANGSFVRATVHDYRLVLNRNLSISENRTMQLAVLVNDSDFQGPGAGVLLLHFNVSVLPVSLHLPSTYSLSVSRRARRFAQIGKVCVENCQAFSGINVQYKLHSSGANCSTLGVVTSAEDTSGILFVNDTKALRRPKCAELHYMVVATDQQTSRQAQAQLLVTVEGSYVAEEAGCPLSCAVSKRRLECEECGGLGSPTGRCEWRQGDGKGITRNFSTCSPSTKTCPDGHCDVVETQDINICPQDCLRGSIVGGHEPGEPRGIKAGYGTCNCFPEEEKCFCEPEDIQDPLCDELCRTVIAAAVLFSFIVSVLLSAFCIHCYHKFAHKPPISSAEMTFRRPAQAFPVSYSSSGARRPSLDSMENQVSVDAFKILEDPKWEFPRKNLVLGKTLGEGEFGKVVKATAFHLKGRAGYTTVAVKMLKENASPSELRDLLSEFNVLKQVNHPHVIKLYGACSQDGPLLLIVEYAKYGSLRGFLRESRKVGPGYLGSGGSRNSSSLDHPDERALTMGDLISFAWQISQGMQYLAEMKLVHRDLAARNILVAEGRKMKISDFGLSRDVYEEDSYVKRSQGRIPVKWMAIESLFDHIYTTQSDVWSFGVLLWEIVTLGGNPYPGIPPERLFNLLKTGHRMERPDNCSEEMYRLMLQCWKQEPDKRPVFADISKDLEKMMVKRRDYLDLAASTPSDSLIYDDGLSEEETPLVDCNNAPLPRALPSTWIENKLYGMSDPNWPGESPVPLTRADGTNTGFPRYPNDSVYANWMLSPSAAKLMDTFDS
Sequence of Ribosomal protein S6 kinase alpha-5 (Homo sapiens) (O75582 whole entry, looked up): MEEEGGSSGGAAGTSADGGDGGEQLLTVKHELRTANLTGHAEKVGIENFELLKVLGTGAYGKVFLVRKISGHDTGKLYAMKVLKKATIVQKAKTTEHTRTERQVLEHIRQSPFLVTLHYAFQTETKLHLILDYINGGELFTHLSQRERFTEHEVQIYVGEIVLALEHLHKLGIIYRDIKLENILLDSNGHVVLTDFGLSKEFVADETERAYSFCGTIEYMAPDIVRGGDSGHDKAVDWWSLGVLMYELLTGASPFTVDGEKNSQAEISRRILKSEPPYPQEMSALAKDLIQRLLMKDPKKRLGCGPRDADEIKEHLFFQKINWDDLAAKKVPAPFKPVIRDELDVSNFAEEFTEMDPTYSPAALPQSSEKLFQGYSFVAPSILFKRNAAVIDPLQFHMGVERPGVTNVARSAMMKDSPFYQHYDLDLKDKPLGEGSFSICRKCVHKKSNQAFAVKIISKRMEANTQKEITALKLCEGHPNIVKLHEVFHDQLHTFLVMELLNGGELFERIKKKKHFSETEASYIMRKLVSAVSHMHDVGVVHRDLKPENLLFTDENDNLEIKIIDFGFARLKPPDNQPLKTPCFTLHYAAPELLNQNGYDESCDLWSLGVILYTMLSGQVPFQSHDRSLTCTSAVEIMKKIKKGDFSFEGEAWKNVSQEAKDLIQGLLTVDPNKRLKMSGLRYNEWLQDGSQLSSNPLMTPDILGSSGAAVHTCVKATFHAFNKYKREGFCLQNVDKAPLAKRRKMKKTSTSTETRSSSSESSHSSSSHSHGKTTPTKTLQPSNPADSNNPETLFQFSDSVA
Sequence of Casein kinase I isoform gamma-2 (Homo sapiens) (P78368 whole entry, looked up, canonical isoform): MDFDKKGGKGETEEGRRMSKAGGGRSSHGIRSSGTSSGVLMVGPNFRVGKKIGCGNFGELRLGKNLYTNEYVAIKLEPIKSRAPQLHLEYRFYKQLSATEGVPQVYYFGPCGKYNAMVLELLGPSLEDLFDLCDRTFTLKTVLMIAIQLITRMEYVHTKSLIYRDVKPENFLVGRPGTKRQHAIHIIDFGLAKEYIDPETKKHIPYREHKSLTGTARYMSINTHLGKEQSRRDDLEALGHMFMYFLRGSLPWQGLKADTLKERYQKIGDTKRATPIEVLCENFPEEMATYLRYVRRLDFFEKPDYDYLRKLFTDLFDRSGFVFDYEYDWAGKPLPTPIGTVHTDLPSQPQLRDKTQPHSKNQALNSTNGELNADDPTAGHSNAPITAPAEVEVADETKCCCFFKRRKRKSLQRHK
Sequence of 3',5'-cyclic-AMP phosphodiesterase 4A (P27815 whole entry, canonical isoform): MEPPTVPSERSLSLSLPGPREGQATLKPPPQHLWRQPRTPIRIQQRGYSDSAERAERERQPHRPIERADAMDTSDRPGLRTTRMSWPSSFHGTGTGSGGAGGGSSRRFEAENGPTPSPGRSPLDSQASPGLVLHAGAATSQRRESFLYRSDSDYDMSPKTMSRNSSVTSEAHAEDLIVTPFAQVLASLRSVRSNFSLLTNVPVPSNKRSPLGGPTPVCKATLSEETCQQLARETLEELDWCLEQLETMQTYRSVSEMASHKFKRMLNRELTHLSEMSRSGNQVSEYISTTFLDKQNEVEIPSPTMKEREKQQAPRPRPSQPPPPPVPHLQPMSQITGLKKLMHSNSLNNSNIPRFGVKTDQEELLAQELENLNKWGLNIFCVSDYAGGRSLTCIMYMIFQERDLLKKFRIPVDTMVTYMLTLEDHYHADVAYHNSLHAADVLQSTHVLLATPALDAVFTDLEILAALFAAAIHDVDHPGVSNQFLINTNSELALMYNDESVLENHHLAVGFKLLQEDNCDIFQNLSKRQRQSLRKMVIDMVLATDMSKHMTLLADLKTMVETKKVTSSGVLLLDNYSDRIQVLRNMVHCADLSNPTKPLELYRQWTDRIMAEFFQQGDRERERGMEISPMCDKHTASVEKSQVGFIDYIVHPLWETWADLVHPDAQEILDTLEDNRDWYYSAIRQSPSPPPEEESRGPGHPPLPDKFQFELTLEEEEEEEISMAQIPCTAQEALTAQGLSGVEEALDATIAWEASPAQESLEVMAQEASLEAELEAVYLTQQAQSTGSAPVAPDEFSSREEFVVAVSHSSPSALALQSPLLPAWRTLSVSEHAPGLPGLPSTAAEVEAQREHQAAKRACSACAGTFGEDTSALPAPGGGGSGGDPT
Sequence of Proto-oncogene tyrosine-protein kinase receptor Ret (Homo sapiens), P07949 [M918T] (P07949 whole entry M918T): as the sequence (P07949 whole entry) above, with M918T counted along it

As a reminder, the IC50 is the concentration at which inhibition is half-maximal. Low readings indicate greater potency in that assay, high ones weaker potency in that assay. Compound `Cc1cc([C@@H](C)Nc2ccccc2C(=O)O)c2nc(N3CCOCC3)cc(=O)n2c1` [AZD-6482] displayed a half-maximal inhibitory concentration (IC50) in assay [1] of 17 µM. Besides, the % of control in [2] came to 88%.

As for `CN(C)C/C=C/C(=O)Nc1ccc(C(=O)N2CCCC(Nc3ncc(Cl)c(-c4c[nH]c5ccccc45)n3)C2)cc1` (configuration not stated), the % of control in assay [3] worked out at 86%; in [4], 94%.

Turning to `CCc1cc(Nc2nccc(-c3c(-c4ccc(OC)c(C(=O)Nc5c(F)cccc5F)c4)nc4ccccn34)n2)c(OC)cc1N1CCC(N2CCN(S(C)(=O)=O)CC2)CC1`, the % of inhibition in assay [5] amounted to 46%.

Consider `Nc1cnc(N2CCc3cc(S(=O)(=O)Nc4c(F)cc(Cl)cc4F)cc(N4CCCC4=O)c32)nc1` [TP-020n], for which, in assay [6], the % of control stood at 100%.

In [7], `CCC(=O)N1CCN(c2ccc(-n3c(=O)ccc4cnc5ccc(-c6cnc7ccccc7c6)cc5c43)cc2C(F)(F)F)CC1` showed a % of control of 1.9%.

For the compound `Cc1cc(F)c(C(=O)Nc2cccc(-c3nncn3C(C)C)n2)cc1-n1cnc(C2CC2)c1`, the % of control is 73% in assay [8] and 81% in assay [9].

Consider `C=CC(=O)Nc1cc(-n2c(=O)ccc3cnc4ccc(-c5ccc(NS(C)(=O)=O)cc5)cc4c32)ccc1C`, for which the % of control was 100% in [10] (at 1 µM) and 98% in assay [10] (at 10 µM).

For the compound `COc1cc(N(C)c2ccnc3ccc(C(F)(F)F)cc23)cc(OC)c1OC`, the % binding in [11] amounted to 85%.

The compound `COCC(=O)NC/C=C/c1ccc2ncnc(Nc3ccc(Oc4ccc(C)nc4)c(C)c3)c2c1` [CP-724714] showed a % of control in assay [12] of 100%.

As to `N#Cc1cccc(-c2c[nH]c3ncnc(N4CCOCC4)c23)c1`, the % of control stood at 78% in assay [13], 58% in assay [14], 70% in assay [15] and 95% in assay [16].

The values are drawn from ChEMBL document CHEMBL5465560, “Selectivity Literature for EUbOPEN Chemogenomic Library” (2024).
